Assay results as given in patent US11999727B2 (Tango Therapeutics, Inc., priority 2020, dated 2024).
pIC50: −log10 of the molar value.

How the values were obtained:
[1] = tested on: HAP1 MTAP-deleted cell line; assay: SDMA in-cell western assay, HAP1 MTAP-deleted; assay type: cell-based; conditions: for pIC50: Homo sapiens, HAP1, SDMA in-cell western, HAP1 MTAP-deleted; for MTAP intact/deleted ratio: SDMA in-cell western
Method in brief: (§1)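 Isogenic HAP1 pair: the MTAP-intact line expresses endogenous MTAP, and the deleted line is MTAP-null. Symmetric dimethylarginine was detected by in-cell western and IC50 values derived for each line.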

PRMT5 [2] = target: T1, PRMT5 (Homo sapiens, UniProt O14744); assay: PRMT5 biochemical IC50 assay with SAM as cofactor; conditions: PRMT5, SAM as cofactor; read-out: SAM IC50
T1 construct: purchased Viva (custom protein)
T1 sequence (O14744 whole entry): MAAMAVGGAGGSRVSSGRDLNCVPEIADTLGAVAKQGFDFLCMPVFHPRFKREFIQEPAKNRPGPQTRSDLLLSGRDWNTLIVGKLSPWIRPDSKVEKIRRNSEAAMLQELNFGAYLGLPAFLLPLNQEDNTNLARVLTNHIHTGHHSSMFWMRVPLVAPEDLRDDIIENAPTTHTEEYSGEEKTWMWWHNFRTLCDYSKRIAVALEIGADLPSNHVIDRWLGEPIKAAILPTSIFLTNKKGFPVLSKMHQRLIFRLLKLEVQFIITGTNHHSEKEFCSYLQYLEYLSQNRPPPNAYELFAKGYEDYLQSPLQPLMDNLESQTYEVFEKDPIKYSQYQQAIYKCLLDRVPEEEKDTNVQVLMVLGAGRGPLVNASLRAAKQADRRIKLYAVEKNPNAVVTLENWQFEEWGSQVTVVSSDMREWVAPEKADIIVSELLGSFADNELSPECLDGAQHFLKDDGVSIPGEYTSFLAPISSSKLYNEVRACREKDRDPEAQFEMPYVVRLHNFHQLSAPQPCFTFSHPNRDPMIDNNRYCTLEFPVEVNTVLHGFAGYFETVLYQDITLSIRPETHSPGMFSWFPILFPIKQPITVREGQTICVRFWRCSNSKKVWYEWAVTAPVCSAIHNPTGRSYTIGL
T1 sequence (Q9BQA1 whole entry partner): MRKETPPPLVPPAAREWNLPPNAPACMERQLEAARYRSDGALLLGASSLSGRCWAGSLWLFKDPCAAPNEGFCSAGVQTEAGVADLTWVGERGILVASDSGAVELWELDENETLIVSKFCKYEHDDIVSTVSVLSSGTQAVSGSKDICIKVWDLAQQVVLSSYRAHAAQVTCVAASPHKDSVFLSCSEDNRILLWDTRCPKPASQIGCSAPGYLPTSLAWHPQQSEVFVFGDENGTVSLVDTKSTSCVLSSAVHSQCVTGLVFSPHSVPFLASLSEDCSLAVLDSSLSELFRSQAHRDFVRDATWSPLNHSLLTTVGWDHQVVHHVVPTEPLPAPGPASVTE

PRMT5 [3] = target: T1, PRMT5; assay: PRMT5 biochemical IC50 assay with MTA as cofactor; conditions: PRMT5, MTA as cofactor; read-out: MTA IC50
[4] = tested on: HAP1 MTAP-intact cell line; assay: SDMA in-cell western assay, HAP1 MTAP-intact; assay type: cell-based; conditions: Homo sapiens, HAP1, SDMA in-cell western, HAP1 MTAP-intact; read-out: MTAP HAP1 intact IC50
Method in brief: as §1

[5] = tested on: HAP1 MTAP-deleted cell line; assay: Viability assay, MTAP-deleted cell line; assay type: cell-based; conditions: Homo sapiens, read-out: HAP1 MTAP deleted viability
Description: Table 1 additionally indicates IC50 values in a viability assay for the MTAP-deleted cell line (column 10), indicating the effect of treatment with compound on cell survival.

PRMT5 [6] = target: T1, PRMT5; assay: PRMT5 biochemical IC50 assay with no cofactor; conditions: PRMT5, no cofactor
Description: Table 1 indicates IC50 values (μM) against PRMT5 for exemplary compounds in the presence of SAM as cofactor, with no cofactor, and with MTA as cofactor, respectively (columns 4-6). […] Ki values can be calculated from the IC50 values as described in the Examples section. As detailed in the Examples section, for the assay performed in the presence of SAM, IC50=Ki×1.5 (Ki=IC50/1.5).

[7] = read-out: HAP1 MTAP deleted IC50
[8] = IC50 ratio HAP1 MTAP-intact / HAP1 MTAP-deleted
[9] = HAP1, viability assay, MTAP-deleted cell line
[10] = IC50 ratio HAP1 MTAP-intact vs HAP1 MTAP-deleted
[11] = read-out: HAP 1 MTAP deleted IC50
[12] = read-out: No Cofactor/ rel IC50
[13] = HAP1, viability, HAP1 MTAP-deleted cell line

Compound	pIC50 [1, 7]	MTAP intact/deleted ratio [1, 8]	pIC50 (PRMT5 [2])	pIC50 (PRMT5 [3])	pIC50 [4]	pIC50 [5, 9]	pIC50 (PRMT5 [6]; read-out: No Cofactor/rel IC50)	MTAP intact/deleted ratio [1, 10]	pIC50 [1, 11]	pIC50 (PRMT5 [6]; [12])	pIC50 [5, 13]	pIC50 ([5]; HAP1, viability IC50, MTAP-deleted cell line)	pIC50 ([5]; HAP1, viability assay, HAP1 MTAP-deleted)
NC(=O)c1cncc(NC(=O)C(=O)N2C[C@@H](CC(F)(F)F)CC[C@H]2c2ccccc2)c1 (racemic) [Compound 318, 5-[[2-Oxo-2-[(2R,5S)-2-phenyl-5-(2,2,2-trifluoroethyl)-1-piperidyl]acetyl]amino]pyridine-3-carboxamide]	< 6.00	C (an IC50 ratio of less than 3 fold)	< 6.30	6.30 to 7.30	< 6.00	< 5.00	< 6.30						
CCc1cc(NC(=O)C(=O)N2C[C@@H](C)CC[C@@H]2c2ccc3sc([C@H]4CCN(C)C(C)(C)C4)nc3c2)cnc1N [Compound 1125, N-(6-amino-5-ethylpyridin-3-yl)-2-((2R,5S)-5-methyl-2-(2-(1,2,2-trimethylpiperidin-4-yl)benzo[d]thiazol-5-yl)piperidin-1-yl)-2-oxoacetamide]	> 7.00		> 7.30	> 7.30	> 7.00	> 6.00	> 7.30	A (an IC50 ratio greater than or equal to 10 fold)					
Cc1cc(NC(=O)C(=O)N2C[C@H](C)CC[C@H]2C2CCC(C(C)(C)C)CC2)cnc1N (mixture of isomers) [Compound 145, rac-N-(6-amino-5-methyl-3-pyridyl)-2-[(2S,5R)-2-(4-tert-butylcyclohexyl)-5-methyl-1-piperidyl]-2-oxo-acetamide]		C (an IC50 ratio of less than 3 fold)	6.30 to 7.30	> 7.30	< 6.00	< 5.00			6.00 to 7.00	6.30 to 7.30			
C[C@H]1CC[C@H](c2ccc3sc(C4CCN(C)CC4)nc3c2)N(C(=O)C(=O)Nc2cnc(OC(F)(F)F)c(C(N)=O)c2)C1 (single isomer, unassigned) [Compound 1337]		B (an IC50 ratio greater than or equal to 3 fold but lower than 10 fold)	> 7.30	> 7.30	> 7.00				> 7.00	> 7.30	> 6.00		
CCc1cc(NC(=O)C(=O)N2C[C@@H](C)CC[C@@H]2c2cccc(OC[C@@H]3CCN(C)C3)c2)cnc1N [Compound 1178, N-(6-amino-5-ethylpyridin-3-yl)-2-((2R,5S)-5-methyl-2-(3-(((R)-1-methylpyrrolidin-3-yl)methoxy)phenyl)piperidin-1-yl)-2-oxoacetamide]	> 7.00		> 7.30	> 7.30	> 7.00	> 6.00	> 7.30	A (an IC50 ratio greater than or equal to 10 fold)					
COc1ncc(NC(=O)C(=O)N2C[C@H](C)CC[C@H]2c2cc3[nH]ncc3s2)cc1C(N)=O (single isomer, unassigned) [Compound 952, 2-methoxy-5-(2-(5-methyl-2-(1H-thieno[3,2-c]pyrazol-5-yl)piperidin-1-yl)-2-oxoacetamido)nicotinamide]		B (an IC50 ratio greater than or equal to 3 fold but lower than 10 fold)	< 6.30	< 6.30	< 6.00	< 5.00	< 6.30		< 6.00				
Cc1cc(NC(=O)C(=O)N2C[C@H](C)CC[C@H]2C)cnc1N (racemic) [Compound 158, N-(6-amino-5-methyl-3-pyridyl)-2-[(2R,5R)-2,5-dimethyl-1-piperidyl]-2-oxo-acetamide]		C (an IC50 ratio of less than 3 fold)	6.30 to 7.30	6.30 to 7.30	< 6.00	< 5.00			< 6.00	6.30 to 7.30			
C[C@@H]1CC[C@@H](c2cccc(C(F)F)c2)N(C(=O)C(=O)Nc2cncc(C(N)=O)c2)C1 (racemic) [Compound 268, rac-5-{2-[(2R,5S)-2-[3-(Difluoromethyl)phenyl]-5-methylpiperidin-1-yl]-2-oxoacetamido}pyridine-3-carboxamide]	6.00 to 7.00	A (an IC50 ratio greater than or equal to 10 fold)	6.30 to 7.30	> 7.30	< 6.00	5.00 to 6.00	6.30 to 7.30						
Cc1cc(NC(=O)C(=O)N2C[C@H](C)CC[C@H]2c2ccc(C(C)(C)O)cc2)cnc1N (racemic) [Compound 672, N-(6-amino-5-methyl-3-pyridyl)-2-[(2R,5S)-2-[4-(1-hydroxy-1-methyl-ethyl)phenyl]-5-methyl-1-piperidyl]-2-oxo-acetamide]		B (an IC50 ratio greater than or equal to 3 fold but lower than 10 fold)	6.30 to 7.30	6.30 to 7.30	< 6.00		6.30 to 7.30		6.00 to 7.00			5.00 to 6.00	
C[C@H]1CC[C@H](c2ccc3[nH]ncc3n2)N(C(=O)C(=O)Nc2cncc(C(N)=O)c2)C1 (single isomer, unassigned) [Compound 778]	> 7.00	A (an IC50 ratio greater than or equal to 10 fold)	6.30 to 7.30	> 7.30	< 6.00		> 7.30						5.00 to 6.00
Cc1cc(NC(=O)C(=O)N2C[C@H](C)CC[C@H]2C(C)C)cnc1N (racemic) [Compound 165, N-(6-amino-5-methyl-3-pyridyl)-2-[(2S,5R)-2-isopropyl-5-methyl-1-piperidyl]-2-oxo-acetamide]		A (an IC50 ratio greater than or equal to 10 fold)	6.30 to 7.30	> 7.30	< 6.00	< 5.00			6.00 to 7.00	6.30 to 7.30			
Cc1cc(NC(=O)C(=O)N2[C@@H](C)CCC[C@H]2c2ccccc2)cnc1N (single isomer, unassigned) [Compound 417]	6.00 to 7.00	B (an IC50 ratio greater than or equal to 3 fold but lower than 10 fold)	6.30 to 7.30	6.30 to 7.30	< 6.00	< 5.00	< 6.30						
CCc1cc(NC(=O)C(=O)N2C[C@@H](C)CC[C@@H]2c2ccc(OCCN(C)C)c(Cl)c2)cnc1N (racemic) [Compound 1305, N-(6-Amino-5-ethyl-3-pyridyl)-2-oxo-2-[rac-(2R,5S)-2-[3-chloro-4-[2-(dimethylamino)ethoxy]phenyl]-5-methyl-1-piperidyl]acetamide]		A (an IC50 ratio greater than or equal to 10 fold)	6.30 to 7.30	> 7.30	> 7.00				> 7.00	> 7.30	> 6.00		
COc1ncc(NC(=O)C(=O)N2C[C@@H](C)CC[C@@H]2c2ccc3sc(C(F)(F)F)nc3c2)cc1C(N)=O (single isomer, unassigned) [Compound 1024]		A (an IC50 ratio greater than or equal to 10 fold)	6.30 to 7.30	> 7.30	6.00 to 7.00	> 6.00	> 7.30		> 7.00				
Cc1cc(NC(=O)C(=O)N2C[C@H](C(N)=O)CC[C@H]2c2ccccc2)cnc1N (racemic) [Compound 315]	6.00 to 7.00	A (an IC50 ratio greater than or equal to 10 fold)	6.30 to 7.30	6.30 to 7.30	< 6.00	< 5.00	6.30 to 7.30						
